Measured values from patent publication US11441168B2, “Method for assaying the activity of spermidine/spermine N1-acetyltransferase” (BioMark Technologies Inc., priority 2011, dated 2022).

Tests used:
[1] = target: spermidine/spermine N1-acetyltransferase (SSAT) (Rattus norvegicus, UniProt Q6P9U6); assay: SSAT-mediated N-acetylation enzyme kinetics in plateable cryopreserved primary rat hepatocytes (LC/MS/MS, Lineweaver-Burk); details: for Vmax of N-acetylation by SSAT: confirmatory experiment, primary rat hepatocytes, 24-hour incubation, Lineweaver-Burk estimate
Chain of spermidine/spermine N1-acetyltransferase (SSAT) (Q6P9U6 1-171): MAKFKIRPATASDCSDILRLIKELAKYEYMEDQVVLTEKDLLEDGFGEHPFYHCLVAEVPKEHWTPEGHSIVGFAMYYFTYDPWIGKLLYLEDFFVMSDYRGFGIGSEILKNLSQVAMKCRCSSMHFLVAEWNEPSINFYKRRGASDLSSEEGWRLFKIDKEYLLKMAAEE
Method: (§1) Refer to the table below for the testing concentrations. Metabolites collected from the incubation reactions were measured by LC/MS/MS analysis.
Immediately before use, cryopreserved primary rat hepatocytes were thawed in a water bath at 37° C. and resuspended in pre-warmed InVitroGRO™ CP Rat Medium. […] Hepatocyte concentrations were adjusted by addition with InVitroGRO™ CP Rat Medium to achieve the target plating concentration of 0.70×10^6 cells/m L. Aliquots of hepatocytes were plated (0.5 mL/well) in 24-well CellAffix culture plates and the plates were placed in an incubator maintained at 37° C. with a highly humidified atmosphere of 95% air and 5% […] for 4 hours to allow hepatocyte attachment before dosing with the selective substrate solutions.
(§2) Following cell attachment, the culture medium was aspirated from each well, and replaced with pre-warmed InVitroGRO™ HI Rat Medium (added with Torpedo antibiotic mix in the confirmatory experiment) and the substrate solution at the appropriate concentration. The treated cells were returned to incubation for 24 hours. Upon completion of incubation, the medium from each well was collected into 1.7-mL vials containing ice-cold methanol and stored at nominal −80° C. (−72° C. to −88° C.) prior to LC/MS/MS analysis. Hepatocytes remaining in the wells were subjected to MTT assay to evaluate the cytotoxic potential of the substrates at the testing concentrations.
Four LC/MS/MS assays were employed to individually quantitate the four metabolites in the incubation samples.
Enzyme kinetics was evaluated based on the enzymatic conversion of the substrate at a range of testing concentrations into their N-acetylated metabolites over a 24-hour incubation reaction time course. Metabolite formation from different testing substrate concentrations after incubation was measured by LC/MS/MS and the resulting data constructed into Lineweaver-Burk plots of the double reciprocal of reaction velocity against substrate concentrations to estimate the Km and Vmax values of SSAT-mediated N-acetylation of each substrate tested.

[2] = target: SSAT in cytosolic liver fraction of transgenic mice (Mus musculus, UniProt P48026); details: read-out: Km of spermidine acetylation (literature reference); cited from earlier work
Chain of SSAT in cytosolic liver fraction of transgenic mice (P48026 whole entry): as the sequence (Q6P9U6 1-171) above, with V35I, L42Q counted along it

[3] = system: rat hepatocytes; details: for Substrate concentration resulting in extensive cytotoxicity / Substrate concentration that resulted in extensive cytotoxicity: rat, 24 h
Method: as §1, §2
Upon collection of the reaction medium, an aliquot of 0.5 mg/mL MTT in KHB was added immediately to the remaining hepatocytes in each well and then incubated for approximately 30 minutes. Following incubation, the medium was replaced with dimethyl sulfoxide (DMSO) to dissolve the formazan. An aliquot from each well was measured for absorbance at 540 nm on a 96-well flat bottom plate with a microplate reader and DMSO for background absorbance correction.
The cytotoxic potential of the substrates to rat hepatocytes was evaluated by MTT cytotoxicity assays. The assays were performed in both the pilot and the confirmatory experiments.

Structure (SMILES) | Vmax of N-acetylation by SSAT [1] [pmol/min/million cells] | Km [2] [µM] | Cytotoxicity to rat hepatocytes (in words) [3] | Km at 24 h ([1]; rat) [µM] | Substrate concentration resulting in extensive cytotoxicity [3] | Substrate concentration that resulted in extensive cytotoxicity [3]
NCCCCNCCCN [spermidine] | 7.21 | 267 ± 46 | No cytotoxicity | – | – | –
CC(N)C12CC3CC(CC(C3)C1)C2 (centres unmarked) [rimantadine] | 0.364 | – | Significant cytotoxicity | 1840 | ~220 µM | ~280 µM
Cc1cccc(C)c1NC(=O)C(C)N (centres unmarked) [tocainide] | 0.617 | – | No cytotoxicity | – | – | –
NC12CC3CC(CC(C3)C1)C2 [amantadine] | 0.00197 | – | Significant cytotoxicity | – | approximately 1140 μM | approximately 1170 μM
